Results: patent publication US9980936B2, “BH4 antagonists and methods related thereto” (Emory University, priority 2014, dated 2018)
“Also recorded” adds a separate entry of the source. Where two headings read alike, the source gives them in different places.

Experiments:
Mc1-1 = Mc1-1 (Homo sapiens, UniProt Q07820); test: binding to other Bcl2 family members
human lung cancer cells = test: screening of cytotoxicity by sulforhodamine B (SRB) assay; type: cell-based; conditions: among top 200 docked small molecules
Source text: A library containing approximately 300,000 small molecules from the National Cancer Institute (NCI) was used to dock the structural pocket of the BH4 domain. The small molecules were ranked according to their energy scores. The top 200 small molecules were selected for screening of cytotoxicity in human lung cancer cells by sulforhodamine B (SRB) assay.

[1] = tested on: normal small airway epithelial cell line (SAEC); test: cell growth (SRB) and apoptosis (Annexin V/PI), normal cells; type: cell-based
[2] = tested on: H460, H157, DMS53, DMS153 and H146 cells expressing Bcl2 shRNA; test: apoptotic cell death (Annexin-V/PI, FACS) after Bcl2 shRNA knock-down; type: cell-based; conditions: 1 μM, 72 h
Description: To determine whether Bcl-2 is the relevant target at the cellular level and whether cell killing is truly dependent on this particular mechanism, Bcl2 was specifically knocked down using three different Bcl2 shRNAs that target different regions in Bcl2 gene in five lung cancer cell lines, including two NSCLC cell lines (H460 and H157) and three SCLC cell lines (DMS53, DMS153 and H146). […] Cells expressing Bcl2 shRNA1, shRNA2, shRNA3 or control shRNA were treated with BDA-2 (1 μM) for 72 h. The level of apoptotic cell death was determined by analysis of Annexin-V/PI binding by FACS.

[3] = tested on: H460 or DMS53 cells expressing Bcl2 shRNA transfected with WT Bcl2; test: rescue of Bcl2-silenced cells with exogenous WT Bcl2; type: cell-based; conditions: 72 h
Source text: Whether expression of exogenous Bcl2 can restore the sensitivity of Bcl2-silenced lung cancer cells to BDA-2 and whether the BDA-2/BH4 binding is important for such effect was examined. WT and BDA-2 binding deficient D10A/N11A/R12A/E13A (AAAA) Bcl2 mutant cDNA in pCIneo or vector-only control were transfected into H460 or DMS53 cells expressing Bcl2 shRNA. It has been reported that if the shRNA is directed to the 3′ UTR or 5′ UTR of the gene, the effect of the shRNA1 can be rescued by ectopically expressing the protein using the wild-type or mutant cDNA. Because Bcl2 shRNA1 targets the 5′UTR of endogenous Bcl2, the silencing effect of shRNA1 on Bcl2 expression could be rescued by transfection of exogenous WT or AAAA Bcl2 mutant. After transfection, cells were treated with BDA-2 or the BH3 mimetic ABT-199 at the indicated concentrations for 72 h. […] The apoptotic effect of BDA-2 on lung cancer cells requires its BH4 binding.

Plasmid pUC19 DNA = test: electrophoretic mobility shift assay (EMSA); type: binding
Description: To test whether BDA-2 reacts with DNA as a crosslinker, electrophoretic mobility shift assay (EMSA) was performed. Cisplatin, a known DNA binding agent, was used as positive control. Plasmid pUC19 DNA was incubated with BDA-2 or cisplatin.

[4] = target: purified, human Bcl2 protein (Homo sapiens, UniProt P10415); test: in vitro cell-free Bcl2 conformational change assay (IP with anti-Bcl2/BH3 domain antibody); type: biochemical
Chain of purified, human Bcl2 protein (P10415 whole entry, the tested form may be a part): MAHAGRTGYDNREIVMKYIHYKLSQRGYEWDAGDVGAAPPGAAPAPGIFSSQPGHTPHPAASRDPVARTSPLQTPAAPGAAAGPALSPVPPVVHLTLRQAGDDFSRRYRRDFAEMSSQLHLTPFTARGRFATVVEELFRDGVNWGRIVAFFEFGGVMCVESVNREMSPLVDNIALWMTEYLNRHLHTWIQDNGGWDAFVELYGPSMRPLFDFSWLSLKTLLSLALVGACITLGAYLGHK
Description: To test whether BDA-2 directly induces Bcl2 conformational change, an in vitro cell-free assay was employed. Purified recombinant Bcl2 protein was incubated with increasing concentrations of BDA-2 in lysis buffer, followed by immunoprecipitation (IP) using the anti-Bcl2/BH3 domain antibody.

H460 cells [5] = test: IP3R/Bcl2 interaction and Ca2+ release; type: cell-based; conditions: increasing concentrations, 24 h
Description: To further determine whether Bax is important for BDA-2 induction of apoptosis, the apoptotic effect of BDA-366 was tested on wild type (WT) and Bax knockout (Bax−/−) MEF cells. […] To test whether BDA-2/BH4 binding affects the IP3R/Bcl2 interaction and Ca2+ release, H460 cells were treated with increasing concentrations of BDA-366 for 24 h.

H460 cells [6] = test: autophagy (LC3-II, GFP-LC3); type: cell-based
Description: Bcl2 directly interacts with Beclin-1 and suppresses Beclin-1-dependent autophagy. Inhibition of Bcl2 by ABT-737 not only induces apoptosis but also autophagy. […] To test whether disruption of Bcl2 BH4 by BDA-2 stimulates autophagy, H460 cells were treated with BDA-366 (1 μM) for 24 h. […] To further quantify the level of autophagy, a GFP-LC3 construct was used to indicate autophagosomes.

in vivo = test: in vivo
Description: In order to define the appropriate doses for in vivo experimentation, the maximum tolerated dose (MTD) was determined. Nu/Nu nude mice were treated in groups of 6 per dose level with increasing doses of BDA-366 (10-50 mg/kg/d) intraperitoneally (i.p.) for up to 12 days. […] Standard single-dose MTD treatment in normal C57BL/6 mice were measured. […] 10% of single dose MTD can usually be considered as the maximum therapeutic dose (30˜40 mg/kg) for continuous treatment.

[7] = tested on: PDX obtained from a patient with refractory SCLC; test: patient-derived xenografts (PDX) of refractory SCLC; type: in vivo, Mice; conditions: 20 mg/kg/d i.p., 2 weeks
Description: Mice carrying xenografts derived from a patient with refractory SCLC were treated with BDA-366 (20 mg/kg/d) via i.p. for 2 weeks.
To evaluate the anti-tumor activity of BDA-2 against SCLC in vivo, patient-derived xenografts (PDX) were established without intervening in vitro culture, which are expected to better recapitulate the SCLC tumor setting.

[8] = tested on: Bcl2 and Bax in H460 xenograft tumor tissues; test: QD-IHF of Bcl2 and Bax conformational change in tumor tissues; type: in vivo, mice; conditions: 14 days
Source text: Quantum dot-based immunohistofluorescence (QD-IHF) technology has recently been developed as a valuable tool for simultaneous and concurrent immunostaining of multiple biomarkers in formalin-fixed paraffin-embedded (FFPE) tissues, thereby allowing for quantification of several biomarkers simultaneously on the same tissue slide. To determine whether BDA-366 induces Bcl2 conformation change by exposure of its BH3 domain in tumor tissues and whether the BH3 domain-exposed Bcl2 activates Bax, conformational changes in both Bcl2 and Bax were simultaneously analyzed by QD-IHF on the same tissue slide.

SCLC cell lines = test: growth of SCLC cell lines; type: cell-based
[9] = tested on: lung cancer xenografts derived from H460 cells; test: H460 lung cancer xenografts
Description: Each group included 8 mice. Tumor volume was measured once every 2 days. After 14 days, the mice were sacrificed and the tumors were removed and analyzed.
To assess whether BDA-366 induced suppression of tumor growth via apoptosis in vivo, representative samples from harvested tumor tissues were analyzed by immunohistochemistry (IHC) for active caspase 3 or TUNEL assat.

[10] = 10, 20, 30 mg/kg/d i.p., 14 days

Chain of Mc1-1 (Q07820 whole entry): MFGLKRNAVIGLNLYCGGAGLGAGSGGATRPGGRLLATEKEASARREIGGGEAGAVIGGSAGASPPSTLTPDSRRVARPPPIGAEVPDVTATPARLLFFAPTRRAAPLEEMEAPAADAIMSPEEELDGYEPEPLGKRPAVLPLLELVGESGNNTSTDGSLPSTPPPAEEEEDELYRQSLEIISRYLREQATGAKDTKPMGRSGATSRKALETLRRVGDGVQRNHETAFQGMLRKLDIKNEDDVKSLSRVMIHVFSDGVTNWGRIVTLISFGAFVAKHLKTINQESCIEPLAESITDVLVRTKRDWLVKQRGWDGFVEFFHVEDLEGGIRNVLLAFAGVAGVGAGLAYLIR

## CCN(CC)CC(O)CNc1ccc(NCC2CO2)c2c1C(=O)c1ccccc1C2=O (stereo not drawn) [BDA-366, 1-((3-(diethylamino)-2-hydroxypropyl)amino)-4-((oxiran-2-ylmethyl)amino)anthracene-9,10-dione]
Mc1-1
  binding to Mc1-1: failed to bind
Mc1-1; listed as BDA-2
  binding to Mc1-1: did not bind
Human lung cancer cells
  activity against human lung cancer cells: most potent activity
[1]
  sensitivity of normal cells: less sensitive
[2]
  sensitivity (apoptotic cell death) after depletion of endogenous Bcl2: significantly reduced sensitivity
[3]
  sensitivity of cells after expression of exogenous WT Bcl2: restored sensitivity
Plasmid pUC19 DNA
  binding to pUC19 DNA causing mobility shift: not
[4]
  direct induction of Bcl2 conformational change (BH3 exposure): enhanced the ability of the Bcl2/BH3 domain-specific antibody to bind Bcl2
H460 cells [5]
  Bcl2/IP3R binding: reduced Bcl2/IP3R binding
  Ca2+ release: increased Ca2+ release
H460 cells [6]; 1 μM, 24 h
  levels of LC3-II: Increased levels of LC3-II
H460 cells [6]; compared to DMSO control
  percentage of GFP-LC3vac cells: significantly increases
In vivo; C57BL/6, mouse, 400 mg/kg
  time to death of mice: 4 days
In vivo; C57BL/6, mouse, maximum therapeutic dose for continuous treatment (10% of single dose MTD)
  MTD: 30 to 40 mg/kg
In vivo; C57BL/6, mouse, single dose MTD
  MTD: 300 to 400 mg/kg
In vivo; mouse, 400 mg/kg
  ALT and AST: significantly enhanced
  pathological analysis for all organs: microsteatosis in the liver and atrophic white pulp in the spleen
In vivo; mouse, ip, 300 mg/kg
  weight loss or other toxicities (hematologic, liver and kidney functions): did not cause weight loss or other toxicities
[7]
  growth of SCLC PDX: effectively suppressed the growth of PDX; also recorded: potently suppressed the growth of the SCLC PDX; also recorded: represses tumor growth in xenografts derived from SCLC patient
[8]
  6A7 binding to Bax (active form of Bax) in tumor tissues: increased level of 6A7 binding to Bax
  exposure of the Bcl2 BH3 domain in tumor tissues: dose-dependent exposure of the Bcl2 BH3 domain in tumor tissues
  total Bcl2 and Bax levels in tumor tissues: no significant changes in total Bcl2 and Bax levels
SCLC cell lines
  growth of SCLC cell lines: efficiently suppressed growth of SCLC cell lines
[9]; 30 mg/kg
  body weight: Weight loss was observed
  neutrophils, lymphocytes, RBC and platelets in blood: no decreases in neutrophils, lymphocytes, red blood cells (RBC) and platelets (PLT)
[9]; [10]
  apoptosis in tumor tissues (active caspase 3 IHC or TUNEL): dose-dependent apoptosis induction
  tumor growth / repression of lung cancer in vivo: potently suppress lung cancer growth in vivo; also recorded: dose-dependent repression of lung cancer in vivo
[9]; 10, 20, 30 mg/kg/d i.p., 14 days, listed as BDA-2
  tumor growth / repression of lung cancer in vivo: represses lung cancer in vivo
[9]; 10-30 mg/kg/d
  histopathology of harvested normal tissues: no evidence of normal tissue toxicities
[9]; mouse, in vivo
  kidney (BUN) and liver (ALT and AST) function: in the normal range
